Reference: US9873696B2, “Neprilysin inhibitors” (THERAVANCE BIOPHARMA R&D IP, LLC, priority 2010, dated 2018)

biological target: T1, human NEP (Homo sapiens, UniProt P08473); assay: In vitro enzyme inhibition assay at human NEP (Assay 1); assay type: biochemical; settings: recombinant enzyme, fluorogenic peptide substrate, 37° C.
T1 construct: purchased R&D Systems, Minneapolis, Minn; 1182-ZN
Protocol: In Vitro Assays for the Quantitation of Inhibitor Potencies (IC50) at Human and Rat NEP, and Human ACE
The inhibitory activities of compounds at human and rat neprilysin (EC 3.4.24.11; NEP) and human angiotensin converting enzyme (ACE) were determined using in vitro assays as described below.
Recombinant human NEP and recombinant human ACE were obtained commercially (R&D Systems, Minneapolis, Minn., catalog numbers 1182-ZN and 929-ZN, respectively). The fluorogenic peptide substrate Mca-D-Arg-Arg-Leu-Dap-(Dnp)-OH (Medeiros et al. (1997) Braz. J. Med. Biol. Res. 30:1157-62; Anaspec, San Jose, Calif.) and Abz-Phe-Arg-Lys(Dnp)-Pro-OH (Araujo et al. (2000) Biochemistry 39:8519-8525; Bachem, Torrance, Calif.) were used in the NEP and ACE assays respectively.
The assays were performed in 384-well white opaque plates at 37° C. using the fluorogenic peptide substrates at a concentration of 10 μM in Assay Buffer (NEP: 50 mM HEPES, pH 7.5, 100 mM NaCl, 0.01% polyethylene glycol sorbitan monolaurate (Tween-20), 10 μM ZnSO4; ACE: 50 mM HEPES, pH 7.5, 100 mM NaCl, 0.01% Tween-20, 1 μM ZnSO4).
Test compounds were assayed over the range of concentrations from […] to 20 μM. Test compounds were added to the enzymes and incubated for 30 minute at 37° C. prior to initiating the reaction by the addition of substrate. Reactions were terminated after 20 minutes of incubation at 37° C. by the addition of glacial acetic acid to a final concentration of 3.6% (v/v).
Plates were read on a fluorometer with excitation and emission wavelengths set to 320 nm and 405 nm, respectively. Inhibition constants were obtained by nonlinear regression of the data using the equation (GraphPad Software, Inc., San Diego, Calif.): v=v0/[1+(I/K′)] where v is the reaction rate, v0 is the uninhibited reaction rate, I is the inhibitor concentration and K′ is the apparent inhibition constant.
Compounds of the invention were tested in this assay and found to have pKi values at human NEP as follows.

T1 sequence (P08473 whole entry): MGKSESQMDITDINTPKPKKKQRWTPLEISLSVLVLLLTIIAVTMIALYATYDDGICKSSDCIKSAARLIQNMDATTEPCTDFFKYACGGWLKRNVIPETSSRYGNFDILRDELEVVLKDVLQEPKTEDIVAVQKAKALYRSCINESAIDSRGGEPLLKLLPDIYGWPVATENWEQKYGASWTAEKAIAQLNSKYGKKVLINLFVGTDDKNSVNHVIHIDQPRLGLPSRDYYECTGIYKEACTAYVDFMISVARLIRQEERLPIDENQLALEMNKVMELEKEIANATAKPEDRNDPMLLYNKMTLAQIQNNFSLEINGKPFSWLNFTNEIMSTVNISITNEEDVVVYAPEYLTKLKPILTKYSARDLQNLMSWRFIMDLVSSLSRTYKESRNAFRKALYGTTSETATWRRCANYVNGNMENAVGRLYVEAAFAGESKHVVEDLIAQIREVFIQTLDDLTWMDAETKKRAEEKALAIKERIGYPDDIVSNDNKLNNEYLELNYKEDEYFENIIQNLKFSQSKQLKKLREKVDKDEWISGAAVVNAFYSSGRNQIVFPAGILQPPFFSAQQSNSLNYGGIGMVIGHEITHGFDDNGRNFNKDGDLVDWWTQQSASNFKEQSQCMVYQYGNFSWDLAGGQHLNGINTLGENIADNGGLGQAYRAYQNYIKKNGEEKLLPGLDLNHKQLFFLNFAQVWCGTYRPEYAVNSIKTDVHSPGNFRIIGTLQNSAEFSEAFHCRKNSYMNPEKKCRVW

Compound	Ki [nM]
O=C(NCCO)c1cc(C(=O)NN(Cc2ccc(-c3ccccc3)cc2)C[C@@H](O)C(=O)O)[nH]n1 [Example 2-2, (R)-3-{N-Biphenyl-4-ylmethyl-N′-[5-(2-hydroxyethylcarbamoyl)-2H-pyrazole-3-carbonyl]hydrazino}-2-hydroxypropionic acid]	1.26 to 10
NS(=O)(=O)CCNC(=O)c1cc(C(=O)NN(Cc2ccc(-c3ccccc3)cc2)C[C@@H](O)C(=O)O)[nH]n1 [Example 2-3, (R)-3-{N-Biphenyl-4-ylmethyl-N′-[5-(2-sulfamoylethylcarbamoyl)-2H-pyrazole-3-carbonyl]hydrazino}-2-hydroxypropionic acid]	1.26 to 10
O=C(NC1CC1)c1cc(C(=O)NN(Cc2ccc(-c3ccccc3)cc2)C[C@@H](O)C(=O)O)[nH]n1 [Example 2-4, (R)-3-[N-Biphenyl-4-ylmethyl-N′-(5-cyclopropylcarbamoyl-2H-pyrazole-3-carbonyl)-hydrazino]-2-hydroxypropionic acid]	12.6 to 100
COCCN(C)C(=O)c1cc(C(=O)NN(Cc2ccc(-c3ccccc3)cc2)C[C@@H](O)C(=O)O)[nH]n1 [Example 2-5, (R)-3-(N-Biphenyl-4-ylmethyl-N′-{5-[(2-methoxyethyl)methylcarbamoyl]-2H-pyrazole-3-carbonyl}hydrazino)-2-hydroxypropionic acid]	12.6 to 100
CN(C)C(=O)c1cc(C(=O)NN(Cc2ccc(-c3ccccc3)cc2)C[C@@H](O)C(=O)O)[nH]n1 [Example 2-6, (R)-3-[N-Biphenyl-4-ylmethyl-N′-(5-dimethylcarbamoyl-2H-pyrazole-3-carbonyl)-hydrazino]-2-hydroxypropionic acid]	1.26 to 10
CC(C)CN(C)C(=O)c1cc(C(=O)NN(Cc2ccc(-c3ccccc3)cc2)C[C@@H](O)C(=O)O)[nH]n1 [Example 2-7, (R)-3-{N-Biphenyl-4-ylmethyl-N′-[5-(isobutylmethylcarbamoyl)-2H-pyrazole-3-carbonyl]hydrazino}-2-hydroxypropionic acid]	12.6 to 100
O=C(NN(Cc1ccc(-c2ccccc2)cc1)C[C@@H](O)C(=O)O)c1cc(-c2ccccc2)n[nH]1 [Example 2-16, (R)-3-[N-Biphenyl-4-ylmethyl-N′-(5-phenyl-2H-pyrazole-3-carbonyl)-hydrazino]-2-hydroxypropionic acid]	12.6 to 100
O=C(NN(Cc1ccc(-c2ccccc2)cc1)C[C@@H](O)C(=O)O)c1cc(C(=O)O)n(Cc2c(F)cc(Cl)cc2F)n1 [Example 2-17, 5-[N′-Biphenyl-4-ylmethyl-N′-((R)-2-carboxy-2-hydroxyethyl)-hydrazinocarbonyl]-2-(4-chloro-2,6-difluorobenzyl)-2H-pyrazole-3-carboxylic acid]	12.6 to 100
COc1c(F)c(F)c(Cn2nc(C(=O)NN(Cc3ccc(-c4ccccc4)cc3)C[C@@H](O)C(=O)O)cc2C(=O)O)c(F)c1F [Example 2-18, 5-[N′-Biphenyl-4-ylmethyl-N′-((R)-2-carboxy-2-hydroxyethyl)-hydrazinocarbonyl]-2-(2,3,5,6-tetrafluoro-4-methoxybenzyl)-2H-pyrazole-3-carboxylic acid]	1.26 to 10
O=C(NN(Cc1ccc(-c2ccccc2)cc1)C[C@@H](O)C(=O)O)c1cc(O)no1 [Example 2-19, (R)-3-[N-Biphenyl-4-ylmethyl-N′-(3-hydroxyisoxazole-5-carbonyl)-hydrazino]-2-hydroxypropionic acid]	1.26 to 10
O=C(NN(Cc1ccc(-c2ccccc2)cc1)C[C@H](O)C(=O)O)c1nnc[nH]1 [Example 2-20, (S)-3-[N-Biphenyl-4-ylmethyl-N′-(4H-[1,2,4]triazole-3-carbonyl)hydrazino]-2-hydroxypropionic acid]	126 to 1000
O=C(NN(Cc1ccc(-c2ccccc2)cc1)C[C@@H](O)C(=O)O)c1cnn[nH]1 [Example 2-21, (R)-3-[N-Biphenyl-4-ylmethyl-N′-(3H-[1,2,3]triazole-4-carbonyl)hydrazino]-2-hydroxypropionic acid]	12.6 to 100

Continued, values first:

Ki [nM]	Compound
≤ 1	O=C(O)c1cc(C(=O)NN(Cc2ccc(-c3ccccc3)cc2)C[C@@H](O)C(=O)O)[nH]n1 [Example 1, 5-[N′-Biphenyl-4-ylmethyl-N′-((R)-2-carboxy-2-hydroxyethyl)hydrazinocarbonl]-1H-pyrazole-3-carboxylic Acid]
1.26 to 10	O=C(O)c1cc(C(=O)NN(Cc2ccc(-c3ccccc3)cc2)C[C@H](O)C(=O)O)[nH]n1 [Example 2-1, 5-[N′-Biphenyl-4-ylmethyl-N′-((S)-2-carboxy-2-hydroxyethyl)-hydrazinocarbonyl]-1H-pyrazole-3-carboxylic acid]
1.26 to 10	O=C(NN(Cc1ccc(-c2ccccc2)cc1)C[C@@H](O)C(=O)O)c1cc(C(=O)N2CCC2)n[nH]1 [Example 2-8, (R)-3-{N′-[5-(Azetidine-1-carbonyl)-2H-pyrazole-3-carbonyl]-N-biphenyl-4-ylmethylhydrazino}-2-hydroxypropionic acid]
1.26 to 10	O=C(NN(Cc1ccc(-c2ccccc2)cc1)C[C@@H](O)C(=O)O)c1cc(C(=O)N2CCCC2)n[nH]1 [Example 2-9, (R)-3-{N-Biphenyl-4-ylmethyl-N′-[5-(pyrrolidine-1-carbonyl)-2H-pyrazole-3-carbonyl]hydrazino}-2-hydroxypropionic acid]
1.26 to 10	O=C(NN(Cc1ccc(-c2ccccc2)cc1)C[C@@H](O)C(=O)O)c1cc(C(=O)N2CCC(O)C2)n[nH]1 (stereo partly drawn) [Example 2-10, (R)-3-{N-Biphenyl-4-ylmethyl-N′-[5-(3-hydroxy-pyrrolidine-1-carbonyl)-2H-pyrazole-3-carbonyl]hydrazino}-2-hydroxypropionic acid]
1.26 to 10	O=C(NN(Cc1ccc(-c2ccccc2)cc1)C[C@@H](O)C(=O)O)c1cc(C(=O)N2CC[C@@H](O)C2)n[nH]1 [Example 2-11, (R)-3-{N-Biphenyl-4-ylmethyl-N′-[5-((R)-3-hydroxy-pyrrolidine-1-carbonyl)-2H-pyrazole-3-carbonyl]hydrazino}-2-hydroxypropionic acid]
1.26 to 10	O=C(NN(Cc1ccc(-c2ccccc2)cc1)C[C@@H](O)C(=O)O)c1cc(C(=O)N2CC[C@H](O)C2)n[nH]1 [Example 2-12, (R)-3-{N-Biphenyl-4-ylmethyl-N′-[5-((S)-3-hydroxy-pyrrolidine-1-carbonyl)-2H-pyrazole-3-carbonyl]hydrazino}-2-hydroxypropionic acid]
1.26 to 10	O=C(NN(Cc1ccc(-c2ccccc2)cc1)C[C@@H](O)C(=O)O)c1cc(C(=O)N2CC=CC2)n[nH]1 [Example 2-13, (R)-3-{N-Biphenyl-4-ylmethyl-N′-[5-(2,5-dihydro-pyrrole-1-carbonyl)-2H-pyrazole-3-carbonyl]hydrazino}-2-hydroxypropionic acid]
12.6 to 100	O=C(NN(Cc1ccc(-c2ccccc2)cc1)C[C@@H](O)C(=O)O)c1cc(C(=O)N2CCCCC2)n[nH]1 [Example 2-14, (R)-3-{N-Biphenyl-4-ylmethyl-N′-[5-(piperidine-1-carbonyl)-2H-pyrazole-3-carbonyl]hydrazino}-2-hydroxypropionic acid]
1.26 to 10	O=C(NN(Cc1ccc(-c2ccccc2)cc1)C[C@@H](O)C(=O)O)c1cc(C(=O)N2CCOCC2)n[nH]1 [Example 2-15, (R)-3-{N-Biphenyl-4-ylmethyl-N′-[5-(morpholine-4-carbonyl)-2H-pyrazole-3-carbonyl]hydrazino}-2-hydroxypropionic acid]
